Article PMC9784828, “Antimicrobial Activity of Peptide-Coupled Antisense Peptide Nucleic Acids in Streptococcus pneumoniae” (Microbiology Spectrum, 2022)

Test system: Detroit 562 cells infected with S. pneumoniae TIGR4
Assay: Cell-based infection model, bacterial CFU
Design: species or system Streptococcus pneumoniae
Settings: 20 μM CPP-PNA; MOI 5; 3 h at 37°C; n = 3
Method: Detroit 562 human pharyngeal epithelial cells were infected with S. pneumoniae TIGR4 at a multiplicity of infection (MOI) of 5. Cells were treated with 20 μM (RXR)4XB-anti-gyrA PNA or scrambled control PNA, respectively. As a positive control, 1 μg levofloxacin, corresponding to 3× MIC, was added. Following incubation for 3 h at 37°C, bacterial CFU counts were determined for CPP-antisense PNA-treated samples and compared to those in nontreated samples and in samples containing scrambled control PNAs (Fig. 4A). Treatment with (RXR)4XB-anti-gyrA caused a log CFU reduction of 1. Addition of levofloxacin led to a log CFU reduction of 2.
The human pharynx carcinoma epithelial cell line Detroit 562 (ATCC CCL138) was cultivated in Dulbecco’s modified Eagle medium (DMEM)/F12 (1:1) (Thermo Fisher Scientific, Schwerte, Germany) supplemented with 10% fetal bovine serum at 37°C and 5% CO2. Confluent Detroit 562 cells were infected with S. pneumoniae TIGR4 at an MOI of 5. Cultures were treated with 20 μM CPP-PNAs or 1 μg levofloxacin, respectively, and incubated for 3 h at 37°C, 5% CO2. After incubation, the supernatant was collected. Adherent cells were detached with Accutase solution (Merck KGaA, Darmstadt, Germany), collected by centrifugation for 10 min at 4,000 × g, and combined with the supernatant. Cells were pelleted by centrifugation, washed twice with PBS, and suspended in PBS. CFU/well was determined following serial dilution and plating on Todd Hewitt Broth, supplemented with Yeast, (THY) agar plates.

With “RXRRXRRXRRXRXB-eg-tgcattaata [(RXR)4XB-anti-gyrA PNA, (RXR)4XB peptide coupled to antisense PNA against gyrA]” the “log CFU reduction in infected Detroit 562 cells” value was 1.
